Test results published in US4973472A, “Dental plaque inhibitor” (Senju Pharmaceutical Col., Ltd., priority 1988, dated 1990).

Key:
[1] = system: Streptococcus mutans; assay: Prevention of the adhesion of tooth decaying bacteria to the human tooth; assay type: cell-based, Streptococcus mutans ATCC 330402; conditions: 0.5% Substance 1; BHI medium with 5% sucrose; 37° C., 6 hours; scanning electron microscope x 4,000
Protocol: Two test tubes were respectively filled with BHI medium containing 5% of sucrose and a sterilized human tooth was suspended in each of the tubes using a stainless steel wire. After Substance 1 was added to one of the tubes at a final concentration of 0.5%, a culture of Streptococcus mutans ATCC 330402 grown in BHI medium at 37° C. for 18 hours was added to both tubes at a final concentration of 10^8 CFU/ml. The tubes were further incubated at 37° C. for 6 hours, at the end of which time the teeth were taken out, rinsed and observed with a scanning electron microscope at a magnification of x 4,000.

[2] = system: GTase; assay: GTase-inhibitory activity (formation of insoluble glucan from sucrose, turbidity at 550 nm); assay type: biochemical, Streptococcus mutans ATCC 33402; conditions: for Optical density of reaction system: 550 nm
Protocol: The enzyme GTase was prepared from Streptococcus mutans and using sucrose as the substrate, the inhibitory effect of the test substances on the formation of insoluble glucan was determined.
The preparation of GTase was carried out in accordance with the description in Methods for Isolation of Microorganisms (Kazue Yamazato (ed.): R&D Planning), page 733, (1) Preparation of cell-free GTase. Thus, Streptococcus mutans ATCC 33402 was cultured (inoculum size 1%) in brain heart infusion broth (Difco; hereinafter referred to as BHI medium) under stationary conditions at 37° C. for 18 hours and the resulting culture was centrifuged at 4,000 rpm for 10 minutes. The supernatant was taken and ammonium sulfate was added at a final concentration of 60% saturation. The mixture was gently stirred at 4° C. overnight for salting-out and the precipitate was dissolved in 5 mM potassium phosphate buffer (pH 6.5). This solution was then dialyzed against the same buffer at 4° C. overnight to give a crude GTase preparation.
The assay of GTase activity was carried out by the method described in Methods for Isolation of Microorganisms (ibid), page 733, (2) Assay of activities in microbial culture filtrates with minor modification. Thus, the solution prepared as per Tables 1 and 2 was used as a test solution and the corresponding solution prepared by using the same quantity of distilled water in lieu of the test substance solution in otherwise the same composition was used as a control solution. Test tubes were filled with 5 ml aliquots of the test solution or the control solution and allowed to stand in upright position at 37° C. for 16 hours. After completion of the reaction each tube was shaken well to agitate the reaction system and the optical density at 550 nm was measured to find the degree of turbidity. The inhibitory activity of the test substance against GTase was calculated as a percentage with the turbidity of the control reaction system being taken as 100%. […]
Among the substances falling under the purview of the present invention, those mentioned in Table 3 (Substances 1 through 6) were used as test substances.
For each of the substances mentioned in Table 3, the GTase activity at the test substance concentration of 0.5% in the reaction system was assayed to estimate the inhibitory activity of the test substance.
For Substance 1, GTase activity was assayed in the reaction system corresponding to each concentration of the test substance in the range of 0.01% to 1.0% and to obtain correlation between inhibitory activity and test substance concentration.
For Substance 1 at a concentration of 0.5%, either aqueous sodium hydroxide solution or hydrochloric acid was added to portions of the substrate-test substance solution shown in Table 1 to prepare solutions adjusted to pH 4, 5, 6, 7 and 8, respectively, and using each of these solutions, the reaction was carried out at the corresponding pH. The GTase activity at each pH was assayed and the correlation between reaction system pH and inhibitory activity was studied.

[3] = Table 4, 0.5% test substance, 37° C., 16 hours, buffer pH 6.5
[4] = Table 4, 0.5% test substance, 37° C., 16 hours, buffer pH 6.5, control 0.55

With `Cc1c(C)c2c(c(C)c1OP(=O)(O)OC1=C(O)C(C(O)CO)OC1=O)CCC(C)(CCCC(C)CCCC(C)CCCC(C)C)O2` (centres unmarked) [Substance 1] the “adherent bacterial cells and colonies on the tooth surface (FIG. 2)” value [1] was “neither adherent bacterial cells nor colonies”, the “adhesion of bacterial cells and subsequent formation of colonies on the tooth surface” value [1] was “completely inhibited” and the “inhibitory activity, dependence on concentration” value ([2]; 0.01% to 1.0%) was “concentration-dependent”. The inhibition rates ([2]; 0.075% and higher concentrations) was “not less than 90%”, the “formation of insoluble glucan” value ([2]; 0.5%, pH range where GTase was active) was “very slight” and the “% Inhibition” value [2, 3] was 92.7%. The “Optical density of reaction system” value [2, 4] was 0.04, the “% Inhibition” value ([2]; Table 5, concentration 0.01%) was 59.7% and the “Optical density of reaction system” value ([2]; Table 5, concentration 0.01%, control 0.496) was 0.20. For the same compound, the “% Inhibition” value ([2]; Table 5, concentration 0.025%) was 59.7%, the “Optical density of reaction system” value ([2]; Table 5, concentration 0.025%, control 0.496) was 0.20 and the “% Inhibition” value ([2]; Table 5, concentration 0.05%) was 59.7%. The “Optical density of reaction system” value ([2]; Table 5, concentration 0.05%, control 0.496) was 0.20, the “% Inhibition” value ([2]; Table 5, concentration 0.075%) was 89.9% and the “Optical density of reaction system” value ([2]; Table 5, concentration 0.075%, control 0.496) was 0.05. For the same compound, the “% Inhibition” value ([2]; Table 5, concentration 0.1%) was 96.0%, the “Optical density of reaction system” value ([2]; Table 5, concentration 0.1%, control 0.496) was 0.02 and the “% Inhibition” value ([2]; Table 5, concentration 0.25%) was 96.0%. For the same compound, the “Optical density of reaction system” value ([2]; Table 5, concentration 0.25%, control 0.496) was 0.02, the “% Inhibition” value ([2]; Table 5, concentration 0.5%) was 96.0% and the “Optical density of reaction system” value ([2]; Table 5, concentration 0.5%, control 0.496) was 0.02. The “% Inhibition” value ([2]; Table 5, concentration 1.0%) was 96.0%, the “Optical density of reaction system” value ([2]; Table 5, concentration 1.0%, control 0.496) was 0.02 and the Optical density ([2]; Table 6, pH 4, 0.5% test substance, control 0.08) was 0.05. The “% Inhibition” value ([2]; Table 6, pH 5, 0.5% test substance) was 71.4%, the Optical density ([2]; Table 6, pH 5, 0.5% test substance, control 0.35) was 0.06 and the “% Inhibition” value ([2]; Table 6, pH 6, 0.5% test substance) was 91.9%. For the same compound, the Optical density ([2]; Table 6, pH 6, 0.5% test substance, control 0.62) was 0.05, the “% Inhibition” value ([2]; Table 6, pH 7, 0.5% test substance) was 94.9% and the Optical density ([2]; Table 6, pH 7, 0.5% test substance, control 0.59) was 0.03. For the same compound, the Optical density ([2]; Table 6, pH 8, 0.5% test substance, control 0.05) was 0.02, the inhibition rates ([2]; concentration of 0.01%) was “about 60%” and the inhibition rate ([2]; pH 5, 0.5%) was “about 70%”. The inhibition rate ([2]; pH 6 and 7, 0.5%) was “not less than 90%”.

For `CC(C)CCCC(C)CCCC(C)CCCC1(C)CCc2cc(OP(=O)(O)OC3=C(O)C(C(O)CO)OC3=O)ccc2O1` (centres unmarked) [Substance 5], the “% Inhibition” value [2, 3] was 94.5% and the “Optical density of reaction system” value [2, 4] was 0.03.

For `Cc1c(OP(=O)(O)OC2=C(O)C(C(O)CO)OC2=O)cc2c(c1C)OC(C)(CCCC(C)CCCC(C)CCCC(C)C)CC2` (centres unmarked) [Substance 3], the “% Inhibition” value [2, 3] was 94.5% and the “Optical density of reaction system” value [2, 4] was 0.03.

`Cc1c(C)c2c(c(C)c1OP(=O)(O)OC1=C(O)C(C(O)CO)OC1=O)CCC(C)(CCCC(C)CCCC(C)CCCC(C)C)O2` (centres unmarked) [Substance 6] was tested, and the “% Inhibition” value [2, 3] was 95.8% and the “Optical density of reaction system” value [2, 4] was 0.02.

With `Cc1cc(OP(=O)(O)OC2=C(O)C(C(O)CO)OC2=O)cc2c1OC(C)(CCCC(C)CCCC(C)CCCC(C)C)CC2` (centres unmarked) [Substance 4] the “% Inhibition” value [2, 3] was 94.5% and the “Optical density of reaction system” value [2, 4] was 0.03.

In the case of `Cc1cc(OP(=O)(O)OC2=C(O)C(C(O)CO)OC2=O)c(C)c2c1OC(C)(CCCC(C)CCCC(C)CCCC(C)C)CC2` (centres unmarked) [Substance 2], the “% Inhibition” value [2, 3] is reported as 94.5% and the “Optical density of reaction system” value [2, 4] is reported as 0.03.
